# Measurements: patent US20030064380A1, “Anergy-regulated molecules” (The Center For Blood Research, Inc., priority 2001, published 2003)
# Test system: D5 Th1 T cell line
# Assay: nucleic acid expression profile of D5 Th1 T cell line stimulated with 500 nM ionomycin, 1 μM CsA plus ionomycin or 20 nM PMA plus ionomycin; 11K chip, first replicate
# Type: cell-based, murine
# Set-up: expression level of Msa.15983.0_f_at / expression level of Msa.1669.0_f_at / expression level of Msa.18713.0_g_at / expression level of D86609_s_at / expression level of TC19211_at / expression level of TC21156_at / expression level of TC24045_at / expression level of TC30384_g_at / expression level of TC3225_at / expression level of TC38978_at / expression level of TC39080_at / expression level of TC17495_at: unit not given here
# Protocol: D5 or primary T cells from NFAT1−/− or wild type DO11.10 transgenic mice were stimulated for 2, 6 or 16 hours with 500 nM ionomycin, 20 nM PMA plus 500 nM ionomycin, or 1 μM CsA plus 500 nM ionomycin. Total RNA was isolated with an RNeasy kit (QIAGEN). Ten μg of total RNA was quantitatively amplified and biotin-labeled as described (Byrne et al., (2000) “Preparation of mRNA for Expression Monitoring” Current Protocols in Molecular Biology (John Wiley & Sons, Inc.) pp. 22.22.21-22.22.13). Hybridization to GeneChips® (Affymetrix) displaying probes for 11,000 mouse genes/ESTs was performed at 40° C. overnight in a mix that included 10 μg fragmented RNA, 6× SSPE, 0.005% Triton X-100 and 100 μg/ml herring sperm DNA in a total volume of 200 μl. Chips were washed, stained with SA-PE and read using an Affymetrix GeneChip® scanner and accompanying gene expression software. Labeled bacterial RNAs of known concentration were spiked into each chip hybridization mix to generate an internal standard curve, allowing normalization between chips and conversion of raw hybridization intensity values to mRNA frequency (mRNA molecules per million).
# Nucleic acid expression profiles were obtained from a T cell line at multiple time points and in various T cell states. The D5 Th1 T cell line was stimulated in three different ways: 1) ionomycin alone (e.g., causing the regulatory factor NFAT to move from the cytoplasm to the nucleus); 2) ionomycin+PMA (e.g., causing both NFAT and the transcription factor AP-1 to enter the nucleus); 3) ionomycin +cyclosporin A (CsA) (e.g., preventing NFAT from entering the nucleus in response to ionomycin). […] Cells were stimulated for 0, 2, 6, and 16 hours. RNA was isolated and analyzed on a nucleic acid chip with probes that monitor the expression of 11,000 nucleic acids located at unique addresses. The experiment was done twice (i.e., with two replicates, Rep. 1 and Rep. 2). Nucleic acid expression at the 2, 6 and 16 hour timepoints was compared to nucleic acid expression at 0 hours.
# The nucleic acid expression data was stored in a computer database. A database query was used to identify all nucleic acids that were deemed “increasing” or “decreasing” in response to ionomycin (relative to the 0 hour sample) in at least one timepoint in Rep. 1, and the nucleic acids were also deemed “increasing” or “decreasing” in response to ionomycin in Rep. 2.
# To test the hypothesis that NFAT in the absence of AP-1 and NFKB induced a genetic program of anergy, genes induced in D5 T cells by ionomycin stimulation alone were evaluated (FIGS. 1, 2 and 6). Samples from D5 cells stimulated with ionomycin plus CsA, which blocks anergy induction, and ionomycin plus PMA, which pharmacologically mimic complete stimulation through the TCR and CD28 were included. RNA was prepared from unstimulated D5 T cells and from cells stimulated for 2, 6 or 16 h under these three conditions, and gene transcription profiles were evaluated using Affymetrix oligonucleotide arrays (FIG. 6A).
structure (smiles),measurement,setting,value
"C[C@H](CCC(=O)O)C[C@H](C)C[C@H](C)C(=O)/C=C(\O)[C@H](C)C[C@H](C)C/C=C/[C@@H](C)[C@@H](O)[C@@H](C)[C@@H](O)C[C@@H]1CC[C@@](C)([C@H]2CC[C@@](C)([C@@H](C)O)O2)O1 [Ionomycin, ionomycin]",expression level of D86609_s_at,2 h,48
same,expression level of ET63436_at,2 h,149
same,expression level of MIP1-B_at,2 h,265.5
same,expression level of Msa.11439.0_s_at,2 h,37
same,expression level of Msa.15983.0_f_at,2 h,40
same,expression level of Msa.1669.0_f_at,2 h,33
same,expression level of Msa.18713.0_g_at,2 h,63
same,expression level of Msa.21745.0_s_at,2 h,9
same,expression level of TC3225_at,2 h,41
same,expression level of TC14671_g_at,2 h,15
same,expression level of TC16364_at,2 h,38
same,expression level of TC16828_at,2 h,13
same,expression level of TC17132_at,2 h,41
same,expression level of TC17495_at,2 h,10
same,expression level of TC17558_at,2 h,28
same,expression level of TC18221_at,2 h,6
same,expression level of TC19211_at,2 h,21
same,expression level of TC21156_at,2 h,34
same,expression level of TC23346_s_at,2 h,8
same,expression level of TC23450_s_at,2 h,20
same,expression level of TC24045_at,2 h,26
same,expression level of TC24067_at,2 h,8
same,expression level of TC25965_at,2 h,19
same,expression level of TC27326_g_at,2 h,40
same,expression level of TC29889_at,2 h,17
same,expression level of TC30384_g_at,2 h,77
same,expression level of TC30935_at,2 h,30
same,expression level of TC30992_s_at,2 h,14
same,expression level of TC31681_at,2 h,52
same,expression level of TC33206_at,2 h,20
same,expression level of TC33833_at,2 h,19
same,expression level of TC34186_at,2 h,19
same,expression level of TC36089_at,2 h,145
same,expression level of TC36583_at,2 h,26
same,expression level of TC37631_at,2 h,38
same,expression level of TC38094_at,2 h,13
same,expression level of TC38978_at,2 h,9
same,expression level of TC39012_at,2 h,47
same,expression level of TC39080_at,2 h,7
same,expression level of TC39762_at,2 h,17
same,expression level of TC40487_g_at,2 h,14
same,expression level of TC41014_at,2 h,9
same,expression level of U44731_s_at,2 h,80
same,expression level of X67914_s_at,2 h,59
same,expression level of Z31202_s_at,2 h,17
same,expression level of aa144045_s_at,2 h,46
same,expression level of aa174748_at,2 h,55
same,expression level of c81206_rc_at,2 h,23
same,expression level of k00083_s_at,2 h,54
same,expression level of x12531_s_at,2 h,81
same,expression level of D86609_s_at,6 h,21
same,expression level of ET63436_at,6 h,82
same,expression level of MIP1-B_at,6 h,102
same,expression level of Msa.11439.0_s_at,6 h,31
same,expression level of Msa.15983.0_f_at,6 h,33
same,expression level of Msa.1669.0_f_at,6 h,38
same,expression level of Msa.18713.0_g_at,6 h,35
same,expression level of Msa.21745.0_s_at,6 h,6
same,expression level of TC3225_at,6 h,44
same,expression level of TC14671_g_at,6 h,19
same,expression level of TC16364_at,6 h,42
same,expression level of TC16828_at,6 h,48
same,expression level of TC17132_at,6 h,54
same,expression level of TC17495_at,6 h,9
same,expression level of TC17558_at,6 h,26
same,expression level of TC18221_at,6 h,8
same,expression level of TC19211_at,6 h,17
same,expression level of TC21156_at,6 h,33
same,expression level of TC23346_s_at,6 h,11
same,expression level of TC23450_s_at,6 h,12
same,expression level of TC24045_at,6 h,21
same,expression level of TC24067_at,6 h,23
same,expression level of TC25965_at,6 h,18
same,expression level of TC27326_g_at,6 h,33
same,expression level of TC29889_at,6 h,15
same,expression level of TC30384_g_at,6 h,73
same,expression level of TC30935_at,6 h,27
same,expression level of TC30992_s_at,6 h,4
same,expression level of TC31681_at,6 h,28
same,expression level of TC33206_at,6 h,8
same,expression level of TC33833_at,6 h,8
same,expression level of TC34186_at,6 h,26
same,expression level of TC36089_at,6 h,122
same,expression level of TC36583_at,6 h,20
same,expression level of TC37631_at,6 h,27
same,expression level of TC38094_at,6 h,7
same,expression level of TC38978_at,6 h,9
same,expression level of TC39012_at,6 h,45
same,expression level of TC39080_at,6 h,14
same,expression level of TC39762_at,6 h,41
same,expression level of TC40487_g_at,6 h,12
same,expression level of TC41014_at,6 h,15
same,expression level of U44731_s_at,6 h,26
same,expression level of X67914_s_at,6 h,62
same,expression level of Z31202_s_at,6 h,30
same,expression level of aa144045_s_at,6 h,39
same,expression level of aa174748_at,6 h,23
same,expression level of c81206_rc_at,6 h,16
same,expression level of k00083_s_at,6 h,32
same,expression level of x12531_s_at,6 h,34
same,expression level of D86609_s_at,16 h,20
same,expression level of ET63436_at,16 h,86
same,expression level of MIP1-B_at,16 h,119
same,expression level of Msa.11439.0_s_at,16 h,34
same,expression level of Msa.15983.0_f_at,16 h,17
same,expression level of Msa.1669.0_f_at,16 h,35
same,expression level of Msa.18713.0_g_at,16 h,28
same,expression level of Msa.21745.0_s_at,16 h,6
same,expression level of TC3225_at,16 h,23
same,expression level of TC14671_g_at,16 h,13
same,expression level of TC16364_at,16 h,34
same,expression level of TC16828_at,16 h,30
same,expression level of TC17132_at,16 h,32
same,expression level of TC17495_at,16 h,12
same,expression level of TC17558_at,16 h,23
same,expression level of TC18221_at,16 h,11
same,expression level of TC19211_at,16 h,12
same,expression level of TC21156_at,16 h,16
same,expression level of TC23346_s_at,16 h,13
same,expression level of TC23450_s_at,16 h,13
same,expression level of TC24045_at,16 h,15
same,expression level of TC24067_at,16 h,15
same,expression level of TC25965_at,16 h,16
same,expression level of TC27326_g_at,16 h,29
same,expression level of TC29889_at,16 h,11
same,expression level of TC30384_g_at,16 h,57
same,expression level of TC30935_at,16 h,22
same,expression level of TC30992_s_at,16 h,6
same,expression level of TC31681_at,16 h,18
same,expression level of TC33206_at,16 h,6
same,expression level of TC33833_at,16 h,6
same,expression level of TC34186_at,16 h,13
same,expression level of TC36089_at,16 h,75
same,expression level of TC36583_at,16 h,18
same,expression level of TC37631_at,16 h,26
same,expression level of TC38094_at,16 h,7
same,expression level of TC38978_at,16 h,12
same,expression level of TC39012_at,16 h,35
same,expression level of TC39080_at,16 h,14
same,expression level of TC39762_at,16 h,31
same,expression level of TC40487_g_at,16 h,8
same,expression level of TC41014_at,16 h,12
same,expression level of U44731_s_at,16 h,17
same,expression level of X67914_s_at,16 h,51
same,expression level of Z31202_s_at,16 h,22
same,expression level of aa144045_s_at,16 h,33
same,expression level of aa174748_at,16 h,22
same,expression level of c81206_rc_at,16 h,15
same,expression level of k00083_s_at,16 h,35
same,expression level of x12531_s_at,16 h,97
